Consider 55 compounds from US20240262804A1, “NITROGEN-CONTAINING HETEROCYCLIC KETONES, PREPARATION METHODS AND MEDICINAL USES THEREOF” (Hansoh Bio LLC, priority 2021, published 2024).

One may read the IC50 as the concentration at which inhibition is half-maximal.

Sequence of bovine cardiac myosin (Q9BE39 whole entry): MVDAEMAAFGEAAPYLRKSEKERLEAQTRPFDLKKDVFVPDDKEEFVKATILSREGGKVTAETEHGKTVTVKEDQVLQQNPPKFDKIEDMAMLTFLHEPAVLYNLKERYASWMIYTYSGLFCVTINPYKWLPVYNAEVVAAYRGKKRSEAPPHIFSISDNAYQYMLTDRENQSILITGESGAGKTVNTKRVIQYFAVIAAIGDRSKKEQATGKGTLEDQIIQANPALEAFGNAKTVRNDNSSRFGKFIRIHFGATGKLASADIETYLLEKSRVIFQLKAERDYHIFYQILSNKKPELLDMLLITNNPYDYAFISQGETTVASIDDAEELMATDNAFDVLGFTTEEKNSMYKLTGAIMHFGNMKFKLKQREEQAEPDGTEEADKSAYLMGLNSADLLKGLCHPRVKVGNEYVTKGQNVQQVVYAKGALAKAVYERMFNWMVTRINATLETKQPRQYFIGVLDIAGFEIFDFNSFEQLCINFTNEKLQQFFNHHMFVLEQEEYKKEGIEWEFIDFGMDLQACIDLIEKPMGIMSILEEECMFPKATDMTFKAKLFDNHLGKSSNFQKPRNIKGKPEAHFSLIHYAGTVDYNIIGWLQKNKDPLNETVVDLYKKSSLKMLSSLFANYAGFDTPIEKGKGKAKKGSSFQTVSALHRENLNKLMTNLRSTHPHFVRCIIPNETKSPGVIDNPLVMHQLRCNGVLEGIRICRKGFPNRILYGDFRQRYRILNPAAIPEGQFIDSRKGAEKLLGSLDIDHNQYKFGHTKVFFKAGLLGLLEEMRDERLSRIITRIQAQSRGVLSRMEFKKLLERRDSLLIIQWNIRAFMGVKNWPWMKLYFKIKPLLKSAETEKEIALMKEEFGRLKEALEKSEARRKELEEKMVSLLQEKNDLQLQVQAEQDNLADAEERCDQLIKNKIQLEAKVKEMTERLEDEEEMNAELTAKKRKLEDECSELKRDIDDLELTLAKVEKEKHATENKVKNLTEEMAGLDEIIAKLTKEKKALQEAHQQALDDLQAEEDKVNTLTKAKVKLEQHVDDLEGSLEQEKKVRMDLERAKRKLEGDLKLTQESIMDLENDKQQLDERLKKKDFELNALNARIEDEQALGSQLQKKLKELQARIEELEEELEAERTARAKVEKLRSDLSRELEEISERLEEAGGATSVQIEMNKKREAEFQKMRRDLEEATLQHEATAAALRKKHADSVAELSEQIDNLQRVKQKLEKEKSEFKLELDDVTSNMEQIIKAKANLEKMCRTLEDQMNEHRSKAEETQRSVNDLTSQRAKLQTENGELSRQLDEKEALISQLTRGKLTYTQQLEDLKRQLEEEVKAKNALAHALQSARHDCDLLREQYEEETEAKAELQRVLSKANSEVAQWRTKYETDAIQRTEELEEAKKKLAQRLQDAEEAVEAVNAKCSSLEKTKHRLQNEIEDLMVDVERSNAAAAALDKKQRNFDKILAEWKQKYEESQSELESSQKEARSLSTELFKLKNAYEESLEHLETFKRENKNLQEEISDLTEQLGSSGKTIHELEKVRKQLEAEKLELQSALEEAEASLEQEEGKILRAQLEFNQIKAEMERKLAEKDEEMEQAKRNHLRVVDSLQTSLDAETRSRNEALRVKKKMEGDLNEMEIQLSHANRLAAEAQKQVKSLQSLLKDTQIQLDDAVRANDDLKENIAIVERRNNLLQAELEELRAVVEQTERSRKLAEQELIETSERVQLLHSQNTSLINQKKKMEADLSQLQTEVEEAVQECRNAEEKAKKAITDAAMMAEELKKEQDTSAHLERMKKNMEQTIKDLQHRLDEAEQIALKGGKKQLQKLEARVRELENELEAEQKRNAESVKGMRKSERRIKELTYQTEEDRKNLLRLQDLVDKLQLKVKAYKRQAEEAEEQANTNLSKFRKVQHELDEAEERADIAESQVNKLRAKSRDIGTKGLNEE
Sequence of bovine cardiac myosin (P85100 whole entry partner): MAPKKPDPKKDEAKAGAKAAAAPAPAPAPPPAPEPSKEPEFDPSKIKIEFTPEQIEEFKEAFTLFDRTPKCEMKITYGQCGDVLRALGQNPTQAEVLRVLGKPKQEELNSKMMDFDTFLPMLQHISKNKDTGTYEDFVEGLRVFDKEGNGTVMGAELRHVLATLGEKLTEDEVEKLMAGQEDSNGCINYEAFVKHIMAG
Sequence of bovine cardiac myosin (Q3SZE5 whole entry partner): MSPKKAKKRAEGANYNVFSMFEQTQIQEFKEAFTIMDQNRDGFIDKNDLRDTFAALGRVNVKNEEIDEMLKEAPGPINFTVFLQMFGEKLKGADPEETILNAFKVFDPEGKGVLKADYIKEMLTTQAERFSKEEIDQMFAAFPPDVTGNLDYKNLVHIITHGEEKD

This test deals with bovine cardiac myosin (Bos taurus (Bovine), UniProt Q9BE39). Kind of test: Myosin inhibitory potency: PK/LDH-coupled ATPase assay on bovine skinned cardiac myofibrils. The following applies: pCa=6.25, 50 μM ATP, 25° C., read-out: myosin inhibition activity IC50. It counts as biochemical. The protocol:
The average rates of ATPase inhibition, and the IC50 values are determined by Victor Nivo multimode plate reader (PerkinElmer, USA).
As to the assays background, a biochemical assay couples the ATPase activity of bovine cardiac myosin to an enzymatic coupling system consisting of pyruvate kinase and lactate dehydrogenase (PK/LDH) and monitoring the absorbance decrease of NADH (at 340 nm) as a function of time to measure the inhibitory ability of small molecule agents. In the assay, PK converts ADP (Adenosine diphosphate) to ATP (adenosine triphosphate) by converting PEP (phosphoenolpyruvate) to pyruvate. Pyruvate is then converted to lactate by LDH by converting NADH (nicotinamide adenine dinucleotide) to NAD (oxidized nicotinamide adenine dinucleotide).
In our experiments, bovine skinned cardiac myofibrils were isolated from the frozen bovine left ventricle as myosin's source in the ATPase assay. The calcium concentration that achieves a 50% (pCa50 or pCa=6.25) activation of the myofibril system was chosen as the final condition for assessing the activation activity according to the literature (DOI: 10.1074/jbc.M117.776815). Myofibrils ATPase activity was measured in a buffered solution containing 12 mM PIPES (piperazine-N, N′-bis(2-ethane sulfonic acid) and 2 mM magnesium chloride at pH 6.8 (PM12 buffer). Final assay conditions were 1 mg/mL of bovine cardiac myofibrils, 1:20 of stock PK/LDH (Sigma-Aldrich, Cat No. P0294-5X5ML), 50 μM ATP, 1 mM DTT (dithiothreitol), 0.75 mM NADH, 1.5 mM PEP at pCa50 (pCa=6.25). Compounds were dissolved in DMSO (dimethyl sulfoxide). Serial dilution of compounds was created such that the final desired concentration of compound would be achieved in a volume of 150 μL with a fixed DMSO concentration of 2% (v/v). 75 μL of a solution containing bovine cardiac myofibrils, PK/LDH, and calcium were added to a 96 well plate for a 7 point dose-response. In some circumstances, 10 point-response was used to repeat the ATPase assays on compounds of interest. Compounds were added to the myofibrils solution and incubated for 5 minutes. The enzymatic reaction was started with the addition of 75 μL of a solution containing ATP, PEP, NADH, compounds, and calcium. The ATPase activity was measured by reading absorbance at 340 nm in a PerkinElmer Victor Nivo plate reader at 25° C. in kinetic mode for 15 minutes using clear bottom plates. The slopes of the absorbance changes as a function of time for the first 10 minutes were normalized to slopes on the control wells containing all reagents, including DMSO, but without compounds. This normalized rate was then plotted as a function of small molecule concentration in GraphPad prism 9. The data were fitted to a four-parameter fit, and IC50 was calculated using Graphpad Prism 9.
For the compound `CC(Nc1nc(=O)n(C2CCOCC2)c(=O)[nH]1)C1CC2(CCC2)C1` (stereo not shown) [Example 110], the IC50 came out at 9 µM.

Regarding `O=c1nc(NCCC2CCCCC2)[nH]c(=O)n1C1CCOCC1` [Example 114], the IC50 was determined as 14.2 µM.

Regarding `CC[C@H](Nc1nc(=O)n(C2CCOCC2)c(=O)[nH]1)C1CCCCC1` [Example 116], the IC50 turned out to be 3.95 µM.

On to `CC(Nc1nc(=O)n(C2CCOCC2)c(=O)[nH]1)C1CCC(F)(F)CC1` (stereo not shown) [Example 118], for which the IC50 amounted to 13 µM.

Turning to `CC(Nc1nc(=O)n(C2CCOCC2)c(=O)[nH]1)c1ccccc1Br` (stereo not shown) [Example 119], the IC50 worked out at 3.4 µM.

`CC(Nc1nc(=O)n(C2CCOCC2)c(=O)[nH]1)c1cccc(Br)c1` (stereo not shown) [Example 120]: the IC50 came to 1.58 µM.

With `CC(Nc1nc(=O)n(C2CCOCC2)c(=O)[nH]1)c1ccccc1F` (stereo not shown) [Example 121], the IC50 worked out at 2.62 µM.

On to `CC(Nc1nc(=O)n(C2CCOCC2)c(=O)[nH]1)c1cccc(F)c1` (stereo not shown) [Example 122], for which the IC50 came out at 3.48 µM.

As to `C[C@H](Nc1nc(=O)n(C2CCOCC2)c(=O)[nH]1)c1cccc(F)c1` [Example 124], the IC50 amounted to 1.74 µM.

Take `CC(Nc1nc(=O)n(C2CCOCC2)c(=O)[nH]1)c1ccc(F)cc1` (stereo not shown) [Example 125]: the IC50 came to 8.4 µM.

On to `CC(Nc1nc(=O)n(C2CCOCC2)c(=O)[nH]1)c1cc(F)ccc1F` (stereo not shown) [Example 127], for which the IC50 turned out to be 1.83 µM.

In the case of `CC(Nc1nc(=O)n(C2CCOCC2)c(=O)[nH]1)c1ccc2c(c1)OCO2` (stereo not shown) [Example 128], the IC50 was 1.88 µM.

For `CC(Nc1nc(=O)n(C2CCOCC2)c(=O)[nH]1)c1ccccc1C(F)(F)F` (stereo not shown) [Example 129], the IC50 came out at 0.23 µM.

For the compound `CC(Nc1nc(=O)n(C2CCOCC2)c(=O)[nH]1)c1cccc(C(F)(F)F)c1` (stereo not shown) [Example 130], the IC50 stood at 4.7 µM.

As for `CC(Nc1nc(=O)n(C2CCOCC2)c(=O)[nH]1)c1ccc(C(F)(F)F)cc1` (stereo not shown) [Example 131], the IC50 is 2.49 µM.

`Cc1cccc(C(C)Nc2nc(=O)n(C3CCOCC3)c(=O)[nH]2)c1` (stereo not shown) [Example 133]: the 50% inhibitory concentration (IC50) stood at 0.24 µM.

As for `Cc1ccc(C(C)Nc2nc(=O)n(C3CCOCC3)c(=O)[nH]2)cc1` (stereo not shown) [Example 134], the concentration for half-maximal inhibition (IC50) worked out at 3.64 µM.

Turning to `CC(Nc1nc(=O)n(C2CCOCC2)c(=O)[nH]1)c1cccc(C2CC2)c1` (stereo not shown) [Example 136], the IC50 came to 4.98 µM.

Regarding `CC(Nc1nc(=O)n(C2CCOCC2)c(=O)[nH]1)c1ccc(C2CC2)cc1` (stereo not shown) [Example 137], the IC50 stood at 4.93 µM.

As to `CC(Nc1nc(=O)n(C2CCOCC2)c(=O)[nH]1)c1cccc(CO)c1` (stereo not shown) [Example 139], the IC50 is 6.65 µM.

On to `CC(Nc1nc(=O)n(C2CCOCC2)c(=O)[nH]1)c1ccc(CO)cc1` (stereo not shown) [Example 140], for which the IC50 is 12.3 µM.

Turning to `C=Cc1ccc(C(C)Nc2nc(=O)n(C3CCOCC3)c(=O)[nH]2)cc1` (stereo not shown) [Example 141], the IC50 turned out to be 6.79 µM.

For `O=c1nc(NC(CF)c2ccccc2)[nH]c(=O)n1C1CCCCC1` (stereo not shown) [Example 142], the IC50 is 4.83 µM.

`O=c1nc(NC(c2ccccc2)C(F)F)[nH]c(=O)n1C1CCOCC1` (stereo not shown) [Example 143]: the IC50 was determined as 7.64 µM.

On to `CC(Nc1nc(=O)n(C2CCN(C(=O)OC(C)(C)C)CC2)c(=O)[nH]1)c1ccc(C(F)(F)F)cc1` (stereo not shown) [Example 145], for which the IC50 stood at 3.77 µM.

For `Cc1cccc(C(C)Nc2nc(=O)n(C3CCN(C(=O)OC(C)(C)C)CC3)c(=O)[nH]2)c1` (stereo not shown) [Example 146], the IC50 stood at 5.51 µM.

For the compound `CC(Nc1nc(=O)n(C2CCOCC2)c(=O)[nH]1)c1ccc2c(c1)OC(F)(F)O2` (stereo not shown) [Example 148], the IC50 was 1.14 µM.

On to `O=c1nc(NC2CCc3ccccc32)[nH]c(=O)n1C1CCOCC1` (stereo not shown) [Example 149], for which the IC50 turned out to be 5.5 µM.

On to `COc1ccccc1[C@H](C)Nc1nc(=O)n(C2CCOCC2)c(=O)[nH]1` [Example 150], for which the IC50 was 6.63 µM.

Regarding `C[C@H](Nc1nc(=O)n(C2CCOCC2)c(=O)[nH]1)c1cc(Cl)cc(Cl)c1` [Example 151], the half-maximal inhibitory concentration (IC50) stood at 1.77 µM.

As to `Cc1ccc([C@H](C)Nc2nc(=O)n(C3CCOCC3)c(=O)[nH]2)cc1C` [Example 153], the IC50 was determined as 1.23 µM.

`C[C@H](Nc1nc(=O)n(C2CCOCC2)c(=O)[nH]1)c1cccc(Cl)c1` [Example 154]: the IC50 came out at 0.37 µM.

For the compound `C[C@H](Nc1nc(=O)n(C2CCOCC2)c(=O)[nH]1)c1ccc(C(F)F)cc1` [Example 157], the IC50 stood at 1 µM.

On to `C[C@H](Nc1nc(=O)n(C2CCOCC2)c(=O)[nH]1)c1ccc(F)c(Br)c1` [Example 158], for which the IC50 is 0.52 µM.

Take `C[C@H](Nc1nc(=O)n(C2CCOCC2)c(=O)[nH]1)c1ccccc1Cl` [Example 159]: the IC50 was 0.47 µM.

For the compound `C[C@H](Nc1nc(=O)n(C2CCOCC2)c(=O)[nH]1)c1ccc(C(C)(C)C)cc1` [Example 160], the IC50 stood at 1.6 µM.

In the case of `Cc1ccc([C@H](C)Nc2nc(=O)n(C3CCOCC3)c(=O)[nH]2)cc1F` [Example 161], the IC50 was found to be 1.05 µM.

For the compound `C[C@H](Nc1nc(=O)n(C2CCOCC2)c(=O)[nH]1)c1ccc(F)c(F)c1` [Example 164], the IC50 was 1.36 µM.

As to `C[C@H](Nc1nc(=O)n(C2CCOCC2)c(=O)[nH]1)c1ccc(Cl)c(F)c1` [Example 166], the IC50 was 5.37 µM.

Consider `C[C@H](Nc1nc(=O)n(C2CCOCC2)c(=O)[nH]1)c1ccc(C#N)cc1` [Example 169], for which the IC50 was determined as 1.45 µM.

In the case of `C[C@H](Nc1nc(=O)n(C2CCOCC2)c(=O)[nH]1)c1cccc(F)c1F` [Example 170], the IC50 stood at 1.52 µM.

In the case of `COc1cc([C@H](C)Nc2nc(=O)n(C3CCOCC3)c(=O)[nH]2)ccc1F` [Example 171], the IC50 stood at 0.91 µM.

As for `C[C@H](Nc1nc(=O)n([C@H](C)C(F)(F)F)c(=O)[nH]1)c1ccc(OC(F)(F)F)cc1` [Example 174], the IC50 was 2.82 µM.

For `C[C@H](Nc1nc(=O)n([C@@H](C)C(F)(F)F)c(=O)[nH]1)c1ccc(OC(F)(F)F)cc1` [Example 175], the IC50 amounted to 2.76 µM.

`C[C@H](Nc1nc(=O)n(CC(F)(F)F)c(=O)[nH]1)c1ccc(OC(F)(F)F)cc1` [Example 176]: the concentration for half-maximal inhibition (IC50) is 7.9 µM.

`CC(C)n1c(=O)nc(N[C@@H](C)c2ccc(OC(F)(F)F)cc2)[nH]c1=O` [Example 177]: the IC50 is 1.75 µM.

In the case of `C[C@H](Nc1nc(=O)n([C@H](C)C(F)(F)F)c(=O)[nH]1)c1cccc(F)c1` [Example 178], the IC50 was determined as 3.32 µM.

As to `C[C@H](Nc1nc(=O)n([C@@H](C)C(F)(F)F)c(=O)[nH]1)c1cccc(F)c1` [Example 179], the IC50 was 3.62 µM.

Regarding `CC(C)n1c(=O)nc(N[C@@H](C)c2cccc(F)c2)[nH]c1=O` [Example 181], the IC50 came out at 2.38 µM.

As to `CCc1ccc([C@H](C)Nc2nc(=O)n(C3CCOCC3)c(=O)[nH]2)cc1` [Example 186], the IC50 was 0.74 µM.

For `Cc1cccc(C(C)Nc2nc(=O)n(C3CCNCC3)c(=O)[nH]2)c1` (stereo not shown) [Example 187], the IC50 amounted to 3.34 µM.

On to `CC(Nc1nc(=O)n(C2CCNCC2)c(=O)[nH]1)c1ccc(F)cc1` (stereo not shown) [Example 188], for which the IC50 is 4.41 µM.

Take `Cc1ccccc1C(C)Nc1nc(=O)n(C2CCNCC2)c(=O)[nH]1` (stereo not shown) [Example 189]: the IC50 was found to be 6.72 µM.

For `CC(Nc1nc(=O)n(C2CCNCC2)c(=O)[nH]1)c1ccccc1F` (stereo not shown) [Example 190], the IC50 came to 4.65 µM.

Turning to `CC(Nc1nc(=O)n(C2CCNCC2)c(=O)[nH]1)c1cccc(F)c1` (stereo not shown) [Example 191], the IC50 was 7.63 µM.
